Measured values as given in ChEMBL document CHEMBL1154296, “Potent inhibitors of beta-tryptase and human leukocyte elastase based on the MCoTI-II scaffold” (J Med Chem, 2009).
Starred links: 1 amine or outer side, 2 acyl side, 3 side chain; linkers in the order of their positions; H or OH if unused. Positions of bridges follow the written chain, without caps; N, C: chain ends. Non-standard residues stand in square brackets, D forms with d. Residues, ends and D or L forms follow the SMILES beside them. X2 = N=C(N)NCCC[C@@H](C(=O)[C@H](CCC(N)=O)N[*:1])C(=O)[*:2]

Key:
[1] = target: T1, Neutrophil elastase (Homo sapiens, UniProt P08246); experiment: Inhibition of human leukocyte elastase by substrate hydrolysis based fluorescence assay
T1 sequence (P08246 whole entry): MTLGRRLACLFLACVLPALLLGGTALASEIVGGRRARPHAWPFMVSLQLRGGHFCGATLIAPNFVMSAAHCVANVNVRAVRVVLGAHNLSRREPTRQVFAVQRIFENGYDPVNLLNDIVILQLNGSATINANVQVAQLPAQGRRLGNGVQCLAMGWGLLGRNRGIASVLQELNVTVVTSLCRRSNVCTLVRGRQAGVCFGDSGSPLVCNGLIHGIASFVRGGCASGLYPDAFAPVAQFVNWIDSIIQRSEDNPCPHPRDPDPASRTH

[2] = Inhibition of trypsin by substrate hydrolysis based fluorescence assay
[3] = Inhibition of tryptase by substrate hydrolysis based fluorescence assay

Ki [1] | Ki [2] [nM] | Ki [3] [nM] | Ki ([1]; read-out: Ki) [nM] | Compound
Not Active | > 0.106 | > 50000 |  | CC[C@H](C)[C@@H]1NC(=O)[C@@H]2CSSC[C@@H]3NC(=O)[C@H](C(C)C)NC(=O)CNC(=O)CNC(=O)[C@H](CC(=O)O)NC(=O)[C@H](CO)NC(=O)CNC(=O)[C@H](CO)NC(=O)CNC(=O)[C@@H]4CSSC[C@H](NC(=O)[C@H](CC(=O)O)NC(=O)[C@H](CO)NC(=O)[C@H](CC(=O)O)NC(=O)[C@H](CCCNC(=N)N)NC(=O)[C@H](CCCNC(=N)N)NC(=O)[C@H](CSSC[C@H](NC1=O)C(=O)N[C@@H](CCCNC(=N)N)C(=O)NCC(=O)N[C@@H](CC(N)=O)C(=O)NCC(=O)N[C@@H](Cc1ccc(O)cc1)C(=O)N4)NC(=O)[C@@H](CCCNC(=N)N)C(=O)[C@H](CCC(N)=O)NC(=O)[C@H](CC(C)C)NC(=O)[C@H]([C@@H](C)CC)NC(=O)[C@H](CCC(N)=O)NC(=O)[C@@H]1CCCN1C3=O)C(=O)N1CCC[C@H]1C(=O)NCC(=O)N[C@@H](C)C(=O)N2 (cyclo(ACICRGNGYCGSGSDGGVCPQIL[X2]CRRDSDCPG); disulfide 2-19, 4-25, 10-31)
 | > 0.109 | > 50000 | 21 | CC[C@H](C)[C@@H]1NC(=O)[C@@H]2CSSC[C@@H]3NC(=O)[C@H](C(C)C)NC(=O)CNC(=O)CNC(=O)[C@H](CC(=O)O)NC(=O)[C@H](CO)NC(=O)CNC(=O)[C@H](CO)NC(=O)CNC(=O)[C@@H]4CSSC[C@H](NC(=O)[C@H](CC(=O)O)NC(=O)[C@H](CO)NC(=O)[C@H](CC(=O)O)NC(=O)[C@H](CCCNC(=N)N)NC(=O)[C@H](CCCNC(=N)N)NC(=O)[C@H](CSSC[C@H](NC1=O)C(=O)N[C@@H](CCCNC(=N)N)C(=O)NCC(=O)N[C@@H](CC(N)=O)C(=O)NCC(=O)N[C@@H](Cc1ccc(O)cc1)C(=O)N4)NC(=O)[C@@H](CCCNC(=N)N)C(=O)[C@H](CCC(N)=O)NC(=O)[C@H](CC(C)C)NC(=O)[C@H]([C@@H](C)CC)NC(=O)[C@H](C(C)C)NC(=O)[C@@H]1CCCN1C3=O)C(=O)N1CCC[C@H]1C(=O)NCC(=O)N[C@@H](C)C(=O)N2 (cyclo(ACICRGNGYCGSGSDGGVCPVIL[X2]CRRDSDCPG); disulfide 2-19, 4-25, 10-31)
 | > 0.105 | > 50000 | > 7500 | CC[C@H](C)[C@@H]1NC(=O)[C@@H]2CSSC[C@@H]3NC(=O)[C@H](C(C)C)NC(=O)CNC(=O)CNC(=O)[C@H](CC(=O)O)NC(=O)[C@H](CO)NC(=O)CNC(=O)[C@H](CO)NC(=O)CNC(=O)[C@@H]4CSSC[C@H](NC(=O)[C@H](CC(=O)O)NC(=O)[C@H](CO)NC(=O)[C@H](CC(=O)O)NC(=O)[C@H](CCCNC(=N)N)NC(=O)[C@H](CCCNC(=N)N)NC(=O)[C@H](CSSC[C@H](NC1=O)C(=O)N[C@@H](CCCNC(=N)N)C(=O)NCC(=O)N[C@@H](CC(N)=O)C(=O)NCC(=O)N[C@@H](Cc1ccc(O)cc1)C(=O)N4)NC(=O)[C@@H](CCCNC(=N)N)C(=O)[C@H](CCC(N)=O)NC(=O)[C@H](CC(C)C)NC(=O)[C@H]([C@@H](C)CC)NC(=O)[C@H](Cc1ccccc1)NC(=O)[C@@H]1CCCN1C3=O)C(=O)N1CCC[C@H]1C(=O)NCC(=O)N[C@@H](C)C(=O)N2 (cyclo(ACICRGNGYCGSGSDGGVCPFIL[X2]CRRDSDCPG); disulfide 2-19, 4-25, 10-31)
 | > 0.109 | > 50000 | 32 | CC[C@H](C)[C@@H]1NC(=O)[C@H](C)NC(=O)[C@@H]2CCCN2C(=O)[C@@H]2CSSC[C@@H]3NC(=O)[C@H](C)NC(=O)CNC(=O)[C@@H]4CCCN4C(=O)[C@@H]4CSSC[C@H](NC(=O)[C@H](Cc5ccc(O)cc5)NC(=O)CNC(=O)[C@H](CC(N)=O)NC(=O)CNC(=O)[C@H](CCCNC(=N)N)NC(=O)[C@H](CSSC[C@H](NC(=O)[C@@H](CCCNC(=N)N)C(=O)[C@H](CCC(N)=O)NC(=O)[C@H](CC(C)C)NC1=O)C(=O)N[C@@H](CCCNC(=N)N)C(=O)N[C@@H](CCCNC(=N)N)C(=O)N[C@@H](CC(=O)O)C(=O)N[C@@H](CO)C(=O)N[C@@H](CC(=O)O)C(=O)N4)NC(=O)[C@H]([C@@H](C)CC)NC3=O)C(=O)NCC(=O)N[C@@H](CO)C(=O)NCC(=O)N[C@@H](CO)C(=O)N[C@@H](CC(=O)O)C(=O)NCC(=O)NCC(=O)N[C@@H](C(C)C)C(=O)N2 (cyclo(ACICRGNGYCGSGSDGGVCPAIL[X2]CRRDSDCPG); disulfide 2-19, 4-25, 10-31)
